From patent US11040028B2, “Penicinotam derivative, preparation method and use thereof” (OCEAN UNIVERSITY OF CHINA, priority 2017, dated 2021)

Assays:
Type in all cases: cell-based
BHK-21 cells = test: Anti-fibrosis activity test: inhibition of BHK-21 cell proliferation (CCK-8); details: Mesocricetus auratus, BHK-21, 48 h
Method in brief: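 Cells seeded at 2×10^4 cells/mL, allowed to adhere 24 hours, then exposed to graded compound concentrations in triplicate for 48 hours at 37° C, 5% CO2. CCK-8 added for 2 hours, absorbance read at 450 nm; inhibition versus blank control used to derive IC50. Pirfenidone served as positive control.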

[1] = system: human hepatic stellate cells LX-2; test: Anti-fibrosis activity test: inhibition of proliferation of human hepatic stellate cells LX-2 (CCK-8); details: Homo sapiens, 48 h
Method in brief: (§1)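 A CCK-8 proliferation assay was run: cells at 2×10^4 cells/mL, adherent for 24 h, then incubated 48 h at 37° C with compound dilutions. A450 was recorded 2 h after CCK-8 addition and converted to percent inhibition versus blank for IC50 determination.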

[2] = system: human lung fibroblasts HFL1; test: Anti-fibrosis activity test: inhibition of proliferation of human lung fibroblasts HFL1 (CCK-8); details: Homo sapiens, HFL1, 48 h
Method in brief: as §1

[3] = system: mouse macrophages (RAW264.7); test: Lipopolysaccharide-induced NO secretion in macrophages (Griess); details: Mus musculus, RAW264.7, 24 h, RAW264.7, LPS 1 μg/ml, a/b isomers given as first/second symbol, read-out: IC50 (μM), inhibition of lipopolysaccharide-induced NO secretion in macrophages
Method in brief: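 Absorbance at 548 nm after Griess reagent addition to culture supernatant gave NO content; inhibition rate was derived relative to blank control. Cells were mouse RAW264.7 macrophages exposed to compounds and 1 μg/ml LPS for 24 hours.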

[4] = system: human dermal fibroblasts CCC-ESF-1; test: Anti-fibrosis activity test: inhibition of proliferation of human dermal fibroblasts CCC-ESF-1 (CCK-8); details: Fibroblast
Method in brief: as §1

NF-κB = test: Immunological activity test: inhibition of NF-κB activity; details: initial concentration of 30 μM; a/b isomers given as first/second symbol; read-out: IC50 (μM), inhibitory activity against NF-κB
Method in brief: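 Compounds were first screened for inhibition of NF-κB activity at 30 μM, with parthenolide as the positive control. IC50 values were then determined for the compounds by further analysis of the assay data.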

[5] = system: human embryonic lung fibroblast IMR-90; test: Anti-fibrosis activity test: inhibition of proliferation of human embryonic lung fibroblast IMR-90 (CCK-8)
Method in brief: as §1

[6] = system: cardiac fibroblast RAT-iCell-C002; test: Anti-fibrosis activity test: inhibition of proliferation of cardiac fibroblast RAT-iCell-C002 (CCK-8); details: Cardiac fibroblast, 48 h
Method in brief: as §1

[7] = system: human fibrosarcoma cells HT-1080; test: Anti-fibrosis activity test: inhibition of proliferation of human fibrosarcoma cells HT-1080 (CCK-8); details: Homo sapiens, HT-1080, 48 h
Method in brief: as §1

[8] = CCK-8, 48 hours after administration
[9] = human hepatic stellate cells LX-2, CCK-8, 48 hours
[10] = human lung fibroblasts HFL1, CCK-8, 48 hours
[11] = human dermal fibroblasts CCC-ESF-1, CCK-8, 48 hours
[12] = human embryonic lung fibroblast IMR-90, CCK-8, 48 hours
[13] = cardiac fibroblast RAT-iCell-C002, CCK-8, 48 hours
[14] = human fibrosarcoma cells HT-1080, CCK-8, 48 hours
[15] = Homo sapiens, CCC-ESF-1 cells, 48 h, CCK-8
[16] = Homo sapiens, IMR-90 cells, 48 h, CCK-8

IC50 [3]	IC50 (NF-κB)	IC50 [7, 14]	IC50 ([7]; HT-1080 cells, 48 h, CCK-8)	SMILES	IC50 (BHK-21 cells; [8])	IC50 [1, 9]	IC50 [2, 10]	IC50 [4, 11]	IC50 [5, 12]	IC50 [6, 13]	IC50 (BHK-21 cells; 48 h, CCK-8)	IC50 ([1]; LX-2, 48 h, LX-2 cells, CCK-8)	IC50 ([2]; HFL1 cells, 48 h, CCK-8)	IC50 [4, 15]	IC50 [5, 16]	IC50 ([6]; RAT-iCell-C002 cells, CCK-8)
10 to 50 µM	1 to 10 µM	0.05 to 5 mM	–	O=C1c2c([nH]c3cc(F)ccc3c2=O)-c2cccn21 [Compound 488a, 6-Fluoro-9H-pyrrolizino[1,2-b]quinoline-9,10(4H)-dione]	0.05 to 5 mM	< 0.05 mM	0.05 to 5 mM	0.05 to 5 mM	0.05 to 5 mM	0.05 to 5 mM	–	–	–	–	–	–
1 to 10 µM	0.1 to 1 µM	0.05 to 5 mM	–	O=C1c2c(n(CC(F)(F)F)c3ccccc3c2=O)-c2cccn21 [Compound 657a, 4-(2,2,2-Trifluoroethyl)-9H-pyrrolizino[1,2-b]quinoline-9,10(4H)-dione]	0.05 to 5 mM	0.05 to 5 mM	0.05 to 5 mM	0.05 to 5 mM	0.05 to 5 mM	0.05 to 5 mM	–	–	–	–	–	–
1 to 10 µM	1 to 10 µM	0.05 to 5 mM	–	O=C1c2c(n(CCO)c3ccccc3c2=O)-c2cccn21 [Compound 11a, 4-(2-Hydroxyethyl)-9H-pyrrolizino[1,2-b]quinoline-9,10(4H)-dione]	0.05 to 5 mM	0.05 to 5 mM	0.05 to 5 mM	0.05 to 5 mM	0.05 to 5 mM	0.05 to 5 mM	–	–	–	–	–	–
1 to 10 µM	1 to 10 µM	–	0.05 to 5 mM	Cc1cccc2[nH]c3c(c(=O)c12)C(=O)n1cccc1-3 [Compound 678a, 8-Methyl-9H-pyrrolizino[1,2-b]quinoline-9,10(4H)-dione]	–	–	–	–	–	–	0.05 to 5 mM	0.05 to 5 mM	0.05 to 5 mM	0.05 to 5 mM	0.05 to 5 mM	0.05 to 5 mM
1 to 10 µM	1 to 10 µM	–	0.05 to 5 mM	Cc1ccc(C)c2c(=O)c3c([nH]c12)-c1cccn1C3=O [Compound 772a, 5,8-Dimethyl-9H-pyrrolizino[1,2-b]quinoline-9,10(4H)-dione]	–	–	–	–	–	–	< 0.05 mM	0.05 to 5 mM	0.05 to 5 mM	0.05 to 5 mM	0.05 to 5 mM	0.05 to 5 mM
1 to 10 µM	1 to 10 µM	–	0.05 to 5 mM	Cc1cccc2c(O)c3c(nc12)-c1cccn1C3=O [Compound 732b, 9-hydroxy-5-methyl-10H-pyrrolizino[1,2-b]quinolin-10-one]	–	–	–	–	–	–	0.05 to 5 mM	0.05 to 5 mM	0.05 to 5 mM	0.05 to 5 mM	0.05 to 5 mM	0.05 to 5 mM
1 to 10 µM	10 to 50 µM	0.05 to 5 mM	–	N#Cc1cccc2[nH]c3c(c(=O)c12)C(=O)n1cccc1-3 [Compound 476a, 9,10-Dioxo-4,10-dihydro-9H-pyrrolizino[1,2-b]quinoline-8-carbonitrile]	< 0.05 mM	0.05 to 5 mM	0.05 to 5 mM	0.05 to 5 mM	0.05 to 5 mM	0.05 to 5 mM	–	–	–	–	–	–
1 to 10 µM	1 to 10 µM	0.05 to 5 mM	–	N#Cc1ccc(COc2c3c(nc4ccccc24)-c2cccn2C3=O)cc1 [Compound 590b, 4-(((10-oxo-10H-pyrrolizino[1,2-b]quinolin-9-yl)oxy)methyl)benzonitrile]	0.05 to 5 mM	0.05 to 5 mM	0.05 to 5 mM	0.05 to 5 mM	0.05 to 5 mM	0.05 to 5 mM	–	–	–	–	–	–
1 to 10 µM	0.1 to 1 µM	0.05 to 5 mM	–	O=C1c2c(nc3ccc(F)cc3c2OCCc2ccccc2)-c2cccn21 [Compound 141b, 7-Fluoro-9-phenethoxy-10H-pyrrolizino[1,2-b]quinolin-10-one]	0.05 to 5 mM	0.05 to 5 mM	0.05 to 5 mM	5 to 20 mM	0.05 to 5 mM	0.05 to 5 mM	–	–	–	–	–	–
10 to 50 µM	0.1 to 1 µM	0.05 to 5 mM	–	N#Cc1ccc(F)cc1Cn1c2c(c(=O)c3ccccc31)C(=O)n1cccc1-2 [Compound 616a, 2-((9,10-Dioxo-9H-pyrrolizino[1,2-b]quinolin-4(10H)-yl)methyl)-4-fluorobenzonitrile]	0.05 to 5 mM	0.05 to 5 mM	0.05 to 5 mM	0.05 to 5 mM	0.05 to 5 mM	0.05 to 5 mM	–	–	–	–	–	–
1 to 10 µM	1 to 10 µM	0.05 to 5 mM	–	O=C1c2c(nc3ccccc3c2OCc2ccc(Br)cc2)-c2cccn21 [Compound 594b, 9-((4-bromobenzyl)oxy)-10H-pyrrolizino[1,2-b]quinolin-10-one]	0.05 to 5 mM	0.05 to 5 mM	0.05 to 5 mM	0.05 to 5 mM	0.05 to 5 mM	0.05 to 5 mM	–	–	–	–	–	–
1 to 10 µM	1 to 10 µM	–	0.05 to 5 mM	O=C1c2c(n(C3CC3)c3ccccc3c2=O)-c2cccn21 [Compound 673a, 4-Cyclopropyl-9H-pyrrolizino[1,2-b]quinoline-9,10(4H)-dione]	–	–	–	–	–	–	< 0.05 mM	0.05 to 5 mM	0.05 to 5 mM	0.05 to 5 mM	0.05 to 5 mM	0.05 to 5 mM
1 to 10 µM	1 to 10 µM	0.05 to 5 mM	–	Cc1ccc(COc2c3c(nc4ccccc24)-c2cccn2C3=O)cc1 [Compound 604b, 9-((4-methylbenzyl)oxy)-10H-pyrrolizino[1,2-b]quinolin-10-one]	0.05 to 5 mM	0.05 to 5 mM	0.05 to 5 mM	0.05 to 5 mM	0.05 to 5 mM	0.05 to 5 mM	–	–	–	–	–	–
1 to 10 µM	1 to 10 µM	0.05 to 5 mM	–	O=C1c2c([nH]c3ccc(C(F)(F)F)cc3c2=O)-c2cccn21 [Compound 282a, 7-(Trifluoromethyl)-9H-pyrrolizino[1,2-b]quinoline-9,10(4H)-dione]	0.05 to 5 mM	0.05 to 5 mM	0.05 to 5 mM	0.05 to 5 mM	0.05 to 5 mM	0.05 to 5 mM	–	–	–	–	–	–
1 to 10 µM	1 to 10 µM	0.05 to 5 mM	–	O=C1c2c(nc3ccccc3c2OCCO)-c2cccn21 [Compound 11b, 9-(2-hydroxyethoxy)-10H-pyrrolizino[1,2-b]quinolin-10-one]	0.05 to 5 mM	0.05 to 5 mM	0.05 to 5 mM	0.05 to 5 mM	0.05 to 5 mM	0.05 to 5 mM	–	–	–	–	–	–
1 to 10 µM	1 to 10 µM	0.05 to 5 mM	–	CC(C)(C)COc1c2c(nc3ccccc13)-c1cccn1C2=O [Compound 656b, 9-(neopentyloxy)-10H-pyrrolizino[1,2-b]quinolin-10-one]	0.05 to 5 mM	0.05 to 5 mM	0.05 to 5 mM	0.05 to 5 mM	0.05 to 5 mM	0.05 to 5 mM	–	–	–	–	–	–
1 to 10 µM	1 to 10 µM	–	0.05 to 5 mM	O=C1c2c(nc3ccccc3c2OC2CC2)-c2cccn21 [Compound 673b, 9-cyclopropoxy-10H-pyrrolizino[1,2-b]quinolin-10-one]	–	–	–	–	–	–	0.05 to 5 mM	0.05 to 5 mM	0.05 to 5 mM	0.05 to 5 mM	0.05 to 5 mM	0.05 to 5 mM
1 to 10 µM	1 to 10 µM	0.05 to 5 mM	–	O=C1c2c([nH]c3cccc(Cl)c3c2=O)-c2cccn21 [Compound 464a, 8-Chloro-9H-pyrrolizino[1,2-b]quinoline-9,10(4H)-dione]	< 0.05 mM	0.05 to 5 mM	< 0.05 mM	0.05 to 5 mM	0.05 to 5 mM	0.05 to 5 mM	–	–	–	–	–	–
1 to 10 µM	1 to 10 µM	0.05 to 5 mM	–	CC(C)(C)c1ccc(Cn2c3c(c(=O)c4ccccc42)C(=O)n2cccc2-3)cc1 [Compound 605a, 4-(4-(Tert-butyl)benzyl)-9H-pyrrolizino[1,2-b]quinoline-9,10(4H)-dione]	0.05 to 5 mM	0.05 to 5 mM	0.05 to 5 mM	0.05 to 5 mM	0.05 to 5 mM	0.05 to 5 mM	–	–	–	–	–	–

SMILES	IC50 [3]	IC50 (NF-κB)	IC50 [7, 14]	IC50 ([7]; HT-1080 cells, 48 h, CCK-8)	IC50 (BHK-21 cells; [8])	IC50 [1, 9]	IC50 [2, 10]	IC50 [4, 11]	IC50 [5, 12]	IC50 [6, 13]	IC50 (BHK-21 cells; 48 h, CCK-8)	IC50 ([1]; LX-2, 48 h, LX-2 cells, CCK-8)	IC50 ([2]; HFL1 cells, 48 h, CCK-8)	IC50 [4, 15]	IC50 [5, 16]	IC50 ([6]; RAT-iCell-C002 cells, CCK-8)
O=C1c2c(nc3ccccc3c2OCCCCN2CCOCC2)-c2cccn21 [Compound 664b, 9-(4-morpholinobutoxy)-10H-pyrrolizino[1,2-b]quinolin-10-one]	10 to 50 µM	1 to 10 µM	0.05 to 5 mM	–	0.05 to 5 mM	0.05 to 5 mM	0.05 to 5 mM	0.05 to 5 mM	0.05 to 5 mM	0.05 to 5 mM	–	–	–	–	–	–
